Earlier results as cited in PMC8513935.

How the values were obtained:
[1] = log P octanol/water from commercial databases, averaged (the ESI); details: Octanol (wet), 25 C
[2] = experimental, compiled by the authors from the literature (the ESI cites the sources)
[3] = derived by the authors as gas->solvent minus gas->water (a hypothetical dry solvent; the ESI), not a two-phase measurement

For CCCCCCC, the log K of transfer, water to solvent [1] is given as 4.5 log10 K, the log K of transfer, gas to solvent ([2]; 1,2-Dichloroethane, 25 C) is given as 2.98 log10 K and the log K of transfer, gas to solvent ([2]; 2-Methylpropan-1-ol, 25 C) is given as 2.87 log10 K. For the same compound, the log K of transfer, gas to solvent ([2]; 2-Methylpropan-2-ol, 25 C) was 2.9 log10 K, the log K of transfer, gas to solvent ([2]; 3-Methylbutan-1-ol, 25 C) was 2.89 log10 K and the log K of transfer, gas to solvent ([2]; Acetonitrile, 25 C) was 2.35 log10 K. The log K of transfer, gas to solvent ([2]; Butan-1-ol, 25 C) was 2.88 log10 K, the log K of transfer, gas to solvent ([2]; Butanone, 25 C) was 3.03 log10 K and the log K of transfer, gas to solvent ([2]; Butyronitrile, 25 C) was 2.82 log10 K. The log K of transfer, gas to solvent ([2]; CCl4, 25 C) was 3.48 log10 K, the log K of transfer, gas to solvent ([2]; Chlorobenzene, 25 C) was 3.47 log10 K and the log K of transfer, gas to solvent ([2]; Chloroform, 25 C) was 3.39 log10 K. The log K of transfer, gas to solvent ([2]; Cyclohexanone, 25 C) was 2.95 log10 K, the log K of transfer, gas to solvent ([2]; Di-n-butyl ether, 25 C) was 3.38 log10 K and the log K of transfer, gas to solvent ([2]; Dichloromethane, 25 C) was 3.27 log10 K. For the same compound, the log K of transfer, gas to solvent ([2]; Ethanol, 25 C) was 2.71 log10 K, the log K of transfer, gas to solvent ([2]; Hexadecane, 25 C) was 3.17 log10 K and the log K of transfer, gas to solvent ([2]; Hexan-1-ol, 25 C) was 2.93 log10 K. The log K of transfer, gas to solvent ([2]; Hexane, 25 C) was 3.5 log10 K, the log K of transfer, gas to solvent ([2]; Methanol, 25 C) was 2.5 log10 K and the log K of transfer, gas to solvent ([2]; Octan-1-ol, 25 C) was 2.95 log10 K. For the same compound, the log K of transfer, gas to solvent ([2]; Perfluoroalkane, 25 C) was 2.25 log10 K, the log K of transfer, gas to solvent ([2]; Propan-1-ol, 25 C) was 2.74 log10 K and the log K of transfer, gas to solvent ([2]; Propan-2-ol, 25 C) was 2.74 log10 K. For the same compound, the log K of transfer, gas to solvent ([2]; Propanone, 25 C) was 2.81 log10 K, the log K of transfer, gas to solvent ([2]; Propionitrile, 25 C) was 2.67 log10 K and the log K of transfer, gas to solvent ([2]; Tetrahydrofuran, 25 C) was 3.34 log10 K. For the same compound, the log K of transfer, gas to solvent ([2]; Toluene, 25 C) was 3.33 log10 K, the log K of transfer, gas to solvent ([2]; Water, 25 C) was -1.96 log10 K and the log K of transfer, water to solvent ([3]; 1,2-Dichloroethane, 25 C) was 4.94 log10 K. For the same compound, the log K of transfer, water to solvent ([3]; 2-Methylpropan-1-ol, 25 C) was 4.83 log10 K, the log K of transfer, water to solvent ([3]; 2-Methylpropan-2-ol, 25 C) was 4.86 log10 K and the log K of transfer, water to solvent ([3]; 3-Methylbutan-1-ol, 25 C) was 4.85 log10 K. The log K of transfer, water to solvent ([3]; Acetone, 25 C) was 4.77 log10 K, the log K of transfer, water to solvent ([3]; Acetonitrile, 25 C) was 4.31 log10 K and the log K of transfer, water to solvent ([3]; Butan-1-ol, 25 C) was 4.84 log10 K. For the same compound, the log K of transfer, water to solvent ([3]; Butanone, 25 C) was 4.99 log10 K, the log K of transfer, water to solvent ([3]; Butyronitrile, 25 C) was 4.78 log10 K and the log K of transfer, water to solvent ([3]; CCl4, 25 C) was 5.44 log10 K. For the same compound, the log K of transfer, water to solvent ([3]; Chlorobenzene, 25 C) was 5.43 log10 K, the log K of transfer, water to solvent ([3]; Chloroform, 25 C) was 5.35 log10 K and the log K of transfer, water to solvent ([3]; Cyclohexanone, 25 C) was 4.91 log10 K. The log K of transfer, water to solvent ([3]; Di-n-butyl ether, 25 C) was 5.34 log10 K, the log K of transfer, water to solvent ([3]; Dichloromethane, 25 C) was 5.23 log10 K and the log K of transfer, water to solvent ([3]; Ethanol, 25 C) was 4.67 log10 K. For the same compound, the log K of transfer, water to solvent ([3]; Hexadecane, 25 C) was 5.13 log10 K, the log K of transfer, water to solvent ([3]; Hexan-1-ol, 25 C) was 4.89 log10 K and the log K of transfer, water to solvent ([3]; Hexane, 25 C) was 5.46 log10 K. For the same compound, the log K of transfer, water to solvent ([3]; Methanol, 25 C) was 4.46 log10 K, the log K of transfer, water to solvent ([3]; Octan-1-ol(dry), 25 C) was 4.91 log10 K and the log K of transfer, water to solvent ([3]; Perfluoroalkane, 25 C) was 4.21 log10 K. For the same compound, the log K of transfer, water to solvent ([3]; Propan-1-ol, 25 C) was 4.7 log10 K, the log K of transfer, water to solvent ([3]; Propan-2-ol, 25 C) was 4.7 log10 K and the log K of transfer, water to solvent ([3]; Propionitrile, 25 C) was 4.63 log10 K. The log K of transfer, water to solvent ([3]; Tetrahydrofuran, 25 C) was 5.3 log10 K and the log K of transfer, water to solvent ([3]; Toluene, 25 C) was 5.29 log10 K.
In the case of Oc1ccccc1, the log K of transfer, water to solvent [1] is given as 1.5 log10 K, the log K of transfer, gas to solvent ([2]; 1,2-Dichloroethane, 25 C) is given as 5.46 log10 K and the log K of transfer, gas to solvent ([2]; Benzene, 25 C) is given as 5.22 log10 K. The log K of transfer, gas to solvent ([2]; CCl4, 25 C) was 4.55 log10 K, the log K of transfer, gas to solvent ([2]; Chlorobenzene, 25 C) was 5.1 log10 K and the log K of transfer, gas to solvent ([2]; Chloroform, 25 C) was 5.17 log10 K. For the same compound, the log K of transfer, gas to solvent ([2]; Cyclohexane, 25 C) was 4.03 log10 K, the log K of transfer, gas to solvent ([2]; Dichloromethane, 25 C) was 5.49 log10 K and the log K of transfer, gas to solvent ([2]; Hexadecane, 25 C) was 3.76 log10 K. The log K of transfer, gas to solvent ([2]; Hexane, 25 C) was 3.67 log10 K, the log K of transfer, gas to solvent ([2]; Octan-1-ol, 25 C) was 5.68 log10 K and the log K of transfer, gas to solvent ([2]; Perfluoroalkane, 25 C) was 2.23 log10 K. For the same compound, the log K of transfer, gas to solvent ([2]; Toluene, 25 C) was 5.08 log10 K, the log K of transfer, gas to solvent ([2]; Water, 25 C) was 4.85 log10 K and the log K of transfer, water to solvent ([3]; 1,2-Dichloroethane, 25 C) was 0.61 log10 K. The log K of transfer, water to solvent ([3]; Benzene, 25 C) was 0.37 log10 K, the log K of transfer, water to solvent ([3]; CCl4, 25 C) was -0.3 log10 K and the log K of transfer, water to solvent ([3]; Chlorobenzene, 25 C) was 0.25 log10 K. The log K of transfer, water to solvent ([3]; Chloroform, 25 C) was 0.32 log10 K, the log K of transfer, water to solvent ([3]; Cyclohexane, 25 C) was -0.813 log10 K and the log K of transfer, water to solvent ([3]; Dichloromethane, 25 C) was 0.64 log10 K. The log K of transfer, water to solvent ([3]; Hexadecane, 25 C) was -1.08 log10 K, the log K of transfer, water to solvent ([3]; Hexane, 25 C) was -1.18 log10 K and the log K of transfer, water to solvent ([3]; Octan-1-ol(dry), 25 C) was 0.83 log10 K. The log K of transfer, water to solvent ([3]; Perfluoroalkane, 25 C) was -2.62 log10 K and the log K of transfer, water to solvent ([3]; Toluene, 25 C) was 0.23 log10 K.
For c1ccc2c(c1)-c1cccc3cccc-2c13, the log K of transfer, water to solvent [1] is given as 5.16 log10 K, the log K of transfer, gas to solvent ([2]; 1,2-Dichloroethane, 25 C) is given as 9.52 log10 K and the log K of transfer, gas to solvent ([2]; 2-Methylpropan-1-ol, 25 C) is given as 8.1 log10 K. For the same compound, the log K of transfer, gas to solvent ([2]; 3-Methylbutan-1-ol, 25 C) was 8.25 log10 K, the log K of transfer, gas to solvent ([2]; Acetonitrile, 25 C) was 8.75 log10 K and the log K of transfer, gas to solvent ([2]; Benzene, 25 C) was 9.46 log10 K. For the same compound, the log K of transfer, gas to solvent ([2]; Butan-1-ol, 25 C) was 8.4 log10 K, the log K of transfer, gas to solvent ([2]; Butan-2-ol, 25 C) was 8.25 log10 K and the log K of transfer, gas to solvent ([2]; CCl4, 25 C) was 9.27 log10 K. For the same compound, the log K of transfer, gas to solvent ([2]; Chloroform, 25 C) was 9.56 log10 K, the log K of transfer, gas to solvent ([2]; Cyclohexane, 25 C) was 8.51 log10 K and the log K of transfer, gas to solvent ([2]; Di-n-butyl ether, 25 C) was 8.84 log10 K. For the same compound, the log K of transfer, gas to solvent ([2]; Diethyl Ether, 25 C) was 9.08 log10 K, the log K of transfer, gas to solvent ([2]; Ethanol, 25 C) was 8.33 log10 K and the log K of transfer, gas to solvent ([2]; Heptan-1-ol, 25 C) was 8.72 log10 K. The log K of transfer, gas to solvent ([2]; Hexadecane, 25 C) was 8.82 log10 K, the log K of transfer, gas to solvent ([2]; Hexan-1-ol, 25 C) was 8.56 log10 K and the log K of transfer, gas to solvent ([2]; Hexane, 25 C) was 8.41 log10 K. For the same compound, the log K of transfer, gas to solvent ([2]; Methanol, 25 C) was 8.18 log10 K, the log K of transfer, gas to solvent ([2]; Octan-1-ol, 25 C) was 8.61 log10 K and the log K of transfer, gas to solvent ([2]; Pentan-1-ol, 25 C) was 8.49 log10 K. For the same compound, the log K of transfer, gas to solvent ([2]; Propan-1-ol, 25 C) was 8.31 log10 K, the log K of transfer, gas to solvent ([2]; Propan-2-ol, 25 C) was 8.15 log10 K and the log K of transfer, gas to solvent ([2]; Toluene, 25 C) was 9.38 log10 K. The log K of transfer, gas to solvent ([2]; Water, 25 C) was 3.44 log10 K, the log K of transfer, water to solvent ([3]; 1,2-Dichloroethane, 25 C) was 6.08 log10 K and the log K of transfer, water to solvent ([3]; 2-Methylpropan-1-ol, 25 C) was 4.66 log10 K. The log K of transfer, water to solvent ([3]; 3-Methylbutan-1-ol, 25 C) was 4.81 log10 K, the log K of transfer, water to solvent ([3]; Acetonitrile, 25 C) was 5.31 log10 K and the log K of transfer, water to solvent ([3]; Benzene, 25 C) was 6.02 log10 K. The log K of transfer, water to solvent ([3]; Butan-1-ol, 25 C) was 4.96 log10 K, the log K of transfer, water to solvent ([3]; Butan-2-ol, 25 C) was 4.81 log10 K and the log K of transfer, water to solvent ([3]; CCl4, 25 C) was 5.83 log10 K. The log K of transfer, water to solvent ([3]; Chloroform, 25 C) was 6.12 log10 K, the log K of transfer, water to solvent ([3]; Cyclohexane, 25 C) was 5.07 log10 K and the log K of transfer, water to solvent ([3]; Di-n-butyl ether, 25 C) was 5.41 log10 K. For the same compound, the log K of transfer, water to solvent ([3]; Diethyl Ether, 25 C) was 5.64 log10 K, the log K of transfer, water to solvent ([3]; Ethanol, 25 C) was 4.89 log10 K and the log K of transfer, water to solvent ([3]; Heptan-1-ol, 25 C) was 5.28 log10 K. The log K of transfer, water to solvent ([3]; Hexadecane, 25 C) was 5.38 log10 K, the log K of transfer, water to solvent ([3]; Hexan-1-ol, 25 C) was 5.13 log10 K and the log K of transfer, water to solvent ([3]; Hexane, 25 C) was 4.98 log10 K. The log K of transfer, water to solvent ([3]; Methanol, 25 C) was 4.74 log10 K, the log K of transfer, water to solvent ([3]; Octan-1-ol(dry), 25 C) was 5.17 log10 K and the log K of transfer, water to solvent ([3]; Pentan-1-ol, 25 C) was 5.05 log10 K. For the same compound, the log K of transfer, water to solvent ([3]; Propan-1-ol, 25 C) was 4.87 log10 K, the log K of transfer, water to solvent ([3]; Propan-2-ol, 25 C) was 4.72 log10 K and the log K of transfer, water to solvent ([3]; Toluene, 25 C) was 5.94 log10 K.
